{
  "source": "patent US20030104507A1",
  "about": "“Method for detection of ATP” (priority 2001, published 2003)",
  "tested_on": "ATPase activity endogenous to L929 cell lysate",
  "assay": "Detergent inhibition of ATPase endogenous to L929 cell lysate (ATP remaining by luciferase luminescence, 22° C.)",
  "format": "biochemical",
  "set-up": "key to Relative ATPase Activity, slope det/slope lysate: slope with detergent / slope without; ≥1.0 = 100% activity, 0.5 = 50%",
  "procedure": "Three separate detergents in each of four detergent classes were tested: anionic [SDS (Sodium dodecyl sulfate), Bioterge (an α olefin sulfate), and sodium deoxycholate], nonionic [TRITON X-100, BigCHAP (N,N-bis(3-D-Gluconamidopropyl)cholamide) and THESIT (polyethylene glycol 400 dodecyl ether, Fluka, #88315)], cationic [BDDABr (Benzyldimethyldodecylammonium bromide), CTAB (Cetyltrimethylammonium bromide), and DTAB (dodecyltrimethylammonium bromide)] and zwitterionic [CHAPS (3[(3-Cholamidopropyl)dimethylammonio]propanesulfonic acid), CHAPSO (3-([3-Cholamidopropyl]dimethylammonio)-2-hydroxy-1-propanesulfonate), and Sulfobetaine 3-10 ([…]-N,N-dimethyl-3-ammonio-1-propanesulfonate)]. Detergents were obtained from Sigma, Fluka and Aldrich.\nL929 cells (ATCC CCL-1; 1.5×10^5 cells/ml) in F12/DMEM (Hyclone, SH30023) containing 10% horse serum (Hyclone, SH30074) were frozen and thawed for four cycles to create a cell lysate. Then 50 μl of stock detergent solutions [10%, 5.0%, 1.0%, and 0.5% (w/v)] were separately added to 450 μl cell lysate, creating a final detergent concentration in the cell lysate sample of 1.0%, 0.5%, 0.1%, and 0.05%, respectively (these percentage values are those used in Tables D and E herein below). Control samples contained either lysate only or 1.0 μM ATP in 15 mM HEPES buffer (pH 7.5). All samples were incubated at 22° C. (room temperature) for the duration of the experiment.\nAt various timepoints, 20 μl from each sample/detergent mixture was added to a 96-well luminometer plate in triplicate, and then 100 μl of a solution (“luciferase-luciferin” or “L/L reagent”) containing 25 mM HEPES buffer (pH 7.5), 40 μg luciferase enzyme LucPpe2m146 (Promega, E140), 100 μM luciferin (Promega), and 10 mM MgSO4 was added to each well. The L/L reagent was stored at 4° C. for the duration of the experiment and then allowed to reach ambient temperature just before assaying. After mixing the contents of the plate, light output was measured with a Dynex MLX microtiter plate luminometer (Chantilly, Va.), 0.5 second reads per well with the first measurement taken five minutes after the detergent solution was combined with the sample. The average relative light units and the timepoint at which it was measured (rlu; Table D) and percent of remaining luciferase activity at the timepoint (Table E) are reported; controls were run with each set of experimental conditions as indicated. The cationic and anionic detergents were assayed on one day with one set of controls. The zwitterionic and nonionic detergents were assayed on a separate day with a separate set of controls. The DTAB at 0.5% was assayed on both days (1 and 2).\nThe experiment was performed as detailed in Example 1. The average relative light unit values and the percent of ATP remaining values are listed below in Table F and G respectively.\nThe log of the percent of ATP remaining after original timepoint values from Table E and Table G were plotted on the y axis against time (in minutes) on the x axis. The slope of the line generated by these values in the presence of detergent was divided by the slope of the line generated by the values in the absence of detergent (lysate control) resulting in the Relative ATPase Activity values listed below in Table H.\nA relative activity value of 1.0 or greater indicates 100% cellular ATPase activity at the concentration of detergent tested. A relative activity value of 0.5 indicates a two-fold (or 50%) decrease in the level of cellular ATPase activity at the concentration of detergent tested when compared to the ATPase activity level in the absence of the detergent. A relative activity value of 0.2 indicates a five-fold (or 80%) decrease in the level of cellular ATPase activity at the concentration of detergent tested when compared to the ATPase activity level in the absence of the detergent.",
  "data": [
    {"smiles": "C[C@H](CCC(=O)N(CCCNC(=O)[C@H](O)[C@@H](O)[C@H](O)[C@H](O)CO)CCCNC(=O)[C@H](O)[C@@H](O)[C@H](O)[C@H](O)CO)[C@H]1CC[C@H]2[C@@H]3[C@H](O)C[C@@H]4C[C@H](O)CC[C@]4(C)[C@H]3C[C@H](O)[C@]12C", "note": "[BIGCHAP, N,N-bis(3-D-Gluconamidopropyl)cholamide]", "values": [
      {"measurement": "Average Relative Light Unit Values", "setting": "0.05% detergent, 5 min", "result": 6410.42, "unit": "rlu"},
      {"measurement": "Percent ATP Remaining", "setting": "0.05% detergent, 5 min", "result": 100, "unit": "%"},
      {"measurement": "Average Relative Light Unit Values", "setting": "0.05% detergent, 75 min", "result": 2260.45, "unit": "rlu"},
      {"measurement": "Percent ATP Remaining", "setting": "0.05% detergent, 75 min", "result": 35.3, "unit": "%"},
      {"measurement": "Average Relative Light Unit Values", "setting": "0.05% detergent, 169 min", "result": 1036.69, "unit": "rlu"},
      {"measurement": "Percent ATP Remaining", "setting": "0.05% detergent, 169 min", "result": 16.2, "unit": "%"},
      {"measurement": "Average Relative Light Unit Values", "setting": "0.05% detergent, 222 min", "result": 487.72, "unit": "rlu"},
      {"measurement": "Percent ATP Remaining", "setting": "0.05% detergent, 222 min", "result": 7.6, "unit": "%"},
      {"measurement": "Average Relative Light Unit Values", "setting": "0.05% detergent, 260 min", "result": 238.44, "unit": "rlu"},
      {"measurement": "Percent ATP Remaining", "setting": "0.05% detergent, 260 min", "result": 3.7, "unit": "%"},
      {"measurement": "Relative ATPase Activity, slope det/slope lysate", "setting": "0.05 percent detergent", "result": 1.069},
      {"measurement": "Slope (log percent ATP remaining vs time in minutes)", "setting": "0.05 percent detergent", "result": "−0.0056"},
      {"measurement": "Average Relative Light Unit Values", "setting": "0.1% detergent, 5 min", "result": 6607.01, "unit": "rlu"},
      {"measurement": "Percent ATP Remaining", "setting": "0.1% detergent, 5 min", "result": 100, "unit": "%"},
      {"measurement": "Average Relative Light Unit Values", "setting": "0.1% detergent, 75 min", "result": 2087.01, "unit": "rlu"},
      {"measurement": "Percent ATP Remaining", "setting": "0.1% detergent, 75 min", "result": 31.6, "unit": "%"},
      {"measurement": "Average Relative Light Unit Values", "setting": "0.1% detergent, 169 min", "result": 1363.07, "unit": "rlu"},
      {"measurement": "Percent ATP Remaining", "setting": "0.1% detergent, 169 min", "result": 20.6, "unit": "%"},
      {"measurement": "Average Relative Light Unit Values", "setting": "0.1% detergent, 222 min", "result": 634.92, "unit": "rlu"},
      {"measurement": "Percent ATP Remaining", "setting": "0.1% detergent, 222 min", "result": 9.6, "unit": "%"},
      {"measurement": "Average Relative Light Unit Values", "setting": "0.1% detergent, 260 min", "result": 301.55, "unit": "rlu"},
      {"measurement": "Percent ATP Remaining", "setting": "0.1% detergent, 260 min", "result": 4.6, "unit": "%"},
      {"measurement": "Relative ATPase Activity, slope det/slope lysate", "setting": "0.10 percent detergent", "result": 0.968},
      {"measurement": "Slope (log percent ATP remaining vs time in minutes)", "setting": "0.10 percent detergent", "result": "−0.0051"},
      {"measurement": "Average Relative Light Unit Values", "setting": "0.5% detergent, 5 min", "result": 7438.53, "unit": "rlu"},
      {"measurement": "Percent ATP Remaining", "setting": "0.5% detergent, 5 min", "result": 100, "unit": "%"},
      {"measurement": "Average Relative Light Unit Values", "setting": "0.5% detergent, 75 min", "result": 3618.22, "unit": "rlu"},
      {"measurement": "Percent ATP Remaining", "setting": "0.5% detergent, 75 min", "result": 48.6, "unit": "%"},
      {"measurement": "Average Relative Light Unit Values", "setting": "0.5% detergent, 169 min", "result": 2092.69, "unit": "rlu"},
      {"measurement": "Percent ATP Remaining", "setting": "0.5% detergent, 169 min", "result": 28.1, "unit": "%"},
      {"measurement": "Average Relative Light Unit Values", "setting": "0.5% detergent, 222 min", "result": 1144.80, "unit": "rlu"},
      {"measurement": "Percent ATP Remaining", "setting": "0.5% detergent, 222 min", "result": 15.4, "unit": "%"},
      {"measurement": "Average Relative Light Unit Values", "setting": "0.5% detergent, 260 min", "result": 677.61, "unit": "rlu"},
      {"measurement": "Percent ATP Remaining", "setting": "0.5% detergent, 260 min", "result": 9.1, "unit": "%"},
      {"measurement": "Relative ATPase Activity, slope det/slope lysate", "setting": "0.50 percent detergent", "result": 0.782},
      {"measurement": "Slope (log percent ATP remaining vs time in minutes)", "setting": "0.50 percent detergent", "result": "−0.0041"},
      {"measurement": "Average Relative Light Unit Values", "setting": "1.0% detergent, 5 min", "result": 7576.05, "unit": "rlu"},
      {"measurement": "Percent ATP Remaining", "setting": "1.0% detergent, 5 min", "result": 100, "unit": "%"},
      {"measurement": "Average Relative Light Unit Values", "setting": "1.0% detergent, 75 min", "result": 4043.35, "unit": "rlu"},
      {"measurement": "Percent ATP Remaining", "setting": "1.0% detergent, 75 min", "result": 53.4, "unit": "%"},
      {"measurement": "Average Relative Light Unit Values", "setting": "1.0% detergent, 169 min", "result": 2474.59, "unit": "rlu"},
      {"measurement": "Percent ATP Remaining", "setting": "1.0% detergent, 169 min", "result": 32.7, "unit": "%"},
      {"measurement": "Average Relative Light Unit Values", "setting": "1.0% detergent, 222 min", "result": 1374.29, "unit": "rlu"},
      {"measurement": "Percent ATP Remaining", "setting": "1.0% detergent, 222 min", "result": 18.1, "unit": "%"},
      {"measurement": "Average Relative Light Unit Values", "setting": "1.0% detergent, 260 min", "result": 822.65, "unit": "rlu"},
      {"measurement": "Percent ATP Remaining", "setting": "1.0% detergent, 260 min", "result": 10.9, "unit": "%"},
      {"measurement": "Relative ATPase Activity, slope det/slope lysate", "setting": "1.00 percent detergent", "result": 0.725},
      {"measurement": "Slope (log percent ATP remaining vs time in minutes)", "setting": "1.00 percent detergent", "result": "−0.0038"}
    ]}
  ]
}
